Source: patent US20230278972A1, “SUBSTITUTED HALOALKYL SULFONANILIDE HERBICIDES” (FMC Corporation, priority 2020, published 2023)

Legend:
Assay type in all cases: in vivo
[1] = system: blackgrass (Alopecurus myosuroides); assay: Test A postemergence, blackgrass; settings: Postemergence, 0 to 100 scale (0 no effect, 100 complete control); for Blackgrass plant response rating: visual injury vs untreated controls after approx. 10 days
Description: (§1) Seeds of plant species selected from barnyardgrass (Echinochloa crus-galli), kochia (Bassia scoparia), ragweed (common ragweed, Ambrosia artemisiifolia), Ryegrass, Italian (Italian ryegrass, Lolium multiflorum), Foxtail, Giant (giant foxtail, Setaria faberi), and pigweed (Amaranthus retroflexus) were planted into a blend of loam soil and sand and treated preemergence with a directed soil spray using test chemicals formulated in a non-phytotoxic solvent mixture which included a surfactant. At the same time, plants selected from these weed species and also wheat (Triticum aestivum), corn (Zea mays), blackgrass (Alopecurus myosuroides), and galium (catchweed bedstraw, Galium aparine) were planted in pots containing the same blend of loam soil and sand and treated with postemergence applications of test chemicals formulated in the same manner. Plants ranged in height from 2 to 10 cm and were in the one- to two-leaf stage for the postemergence treatment. […] A dash (-) response means no test result.

[2] = system: pigweed (Amaranthus retroflexus); assay: Test A postemergence, pigweed; settings: Postemergence, 0 to 100 scale (0 no effect, 100 complete control); for Pigweed plant response rating: visual injury vs untreated controls after approx. 10 days
Description: as §1

[3] = system: ragweed (common ragweed, Ambrosia artemisiifolia); assay: Test A preemergence, ragweed; settings: Preemergence; for Ragweed plant response rating: visual injury on 0 to 100 scale (0 no effect, 100 complete control), approximately 10 days; for Plant response rating, Ragweed: 0 to 100 scale (0 no effect, 100 complete control)
Description: as §1

corn (Zea mays) = assay: Test A postemergence, corn; settings: Postemergence, 0 to 100 scale (0 no effect, 100 complete control); for Corn plant response rating: visual injury vs untreated controls after approx. 10 days
Description: as §1

[4] = system: barnyardgrass (Echinochloa crus-galli); assay: Test A preemergence, barnyardgrass; settings: Preemergence; for Barnyardgrass plant response rating: visual injury on 0 to 100 scale (0 no effect, 100 complete control), approximately 10 days; for Plant response rating, Barnyardgrass: 0 to 100 scale (0 no effect, 100 complete control)
Description: as §1

[5] = system: Ryegrass, Italian (Italian ryegrass, Lolium multiflorum); assay: Test A postemergence, Ryegrass, Italian; settings: Postemergence, 0 to 100 scale (0 no effect, 100 complete control); for Ryegrass, Italian plant response rating: visual injury vs untreated controls after approx. 10 days
Description: as §1

[6] = system: Foxtail, Giant (giant foxtail, Setaria faberi); assay: Test A preemergence, Foxtail, Giant; settings: Preemergence; for Foxtail, Giant plant response rating: visual injury on 0 to 100 scale (0 no effect, 100 complete control), approximately 10 days; for Plant response rating, Foxtail, Giant: 0 to 100 scale (0 no effect, 100 complete control)
Description: as §1

kochia (Bassia scoparia) [7] = assay: Test A postemergence, kochia; settings: Postemergence, 0 to 100 scale (0 no effect, 100 complete control); for Kochia plant response rating: visual injury vs untreated controls after approx. 10 days
Description: as §1

[8] = system: galium (catchweed bedstraw, Galium aparine); assay: Test A postemergence, galium; settings: Postemergence, 0 to 100 scale (0 no effect, 100 complete control); for Galium plant response rating: visual injury vs untreated controls after approx. 10 days
Description: as §1

[9] = system: Ryegrass, Italian (Italian ryegrass, Lolium multiflorum); assay: Test A preemergence, Ryegrass, Italian; settings: Preemergence; for Ryegrass, Italian plant response rating: visual injury on 0 to 100 scale (0 no effect, 100 complete control), approximately 10 days; for Plant response rating, Ryegrass, Italian: 0 to 100 scale (0 no effect, 100 complete control)
Description: as §1

[10] = system: barnyardgrass (Echinochloa crus-galli); assay: Test A postemergence, barnyardgrass; settings: Postemergence, 0 to 100 scale (0 no effect, 100 complete control); for Barnyardgrass plant response rating: visual injury vs untreated controls after approx. 10 days
Description: as §1

[11] = system: ragweed (common ragweed, Ambrosia artemisiifolia); assay: Test A postemergence, ragweed; settings: Postemergence, 0 to 100 scale (0 no effect, 100 complete control); for Ragweed plant response rating: visual injury vs untreated controls after approx. 10 days
Description: as §1

kochia (Bassia scoparia) [12] = assay: Test A preemergence, kochia; settings: Preemergence; for Kochia plant response rating: visual injury on 0 to 100 scale (0 no effect, 100 complete control), approximately 10 days; for Plant response rating, Kochia: 0 to 100 scale (0 no effect, 100 complete control)
Description: as §1

[13] = system: wheat (Triticum aestivum); assay: Test A postemergence, wheat; settings: Postemergence, 0 to 100 scale (0 no effect, 100 complete control); for Wheat plant response rating: visual injury vs untreated controls after approx. 10 days
Description: as §1

[14] = system: Foxtail, Giant (giant foxtail, Setaria faberi); assay: Test A postemergence, Foxtail, Giant; settings: Postemergence, 0 to 100 scale (0 no effect, 100 complete control); for Foxtail, Giant plant response rating: visual injury vs untreated controls after approx. 10 days
Description: as §1

[15] = 125 g ai/ha, visual injury approx. 10 days
[16] = 500 g ai/ha, visual injury approx. 10 days
[17] = 125 g ai/ha, visual injury, approx. 10 days

Cc1c(NS(=O)(=O)C(F)(F)F)cc(C(=O)N2CC(C)OC(C)C2)c(C)c1F (stereo not drawn) [Compound 116]
Plant response rating, Blackgrass [1, 15]: 0 | Blackgrass plant response rating ([1]; 500 g ai/ha): 40 | Plant response rating, Pigweed [2, 15]: 60 | Pigweed plant response rating ([2]; 500 g ai/ha): 80 | Ragweed plant response rating ([3]; 125 g ai/ha): 10 | Plant response rating, Ragweed ([3]; 500 g ai/ha): 100 | Plant response rating, Corn (corn (Zea mays); [15]): 0 | Corn plant response rating (corn (Zea mays); 500 g ai/ha): 80 | Barnyardgrass plant response rating ([4]; 125 g ai/ha): 30 | Plant response rating, Barnyardgrass ([4]; 500 g ai/ha): 90 | Plant response rating, Ryegrass, Italian [5, 15]: 60 | Ryegrass, Italian plant response rating ([5]; 500 g ai/ha): 80 | Foxtail, Giant plant response rating ([6]; 125 g ai/ha): 60 | Plant response rating, Foxtail, Giant ([6]; 500 g ai/ha): 90 | Plant response rating, Kochia (kochia (Bassia scoparia) [7]; [15]): 30 | Kochia plant response rating (kochia (Bassia scoparia) [7]; 500 g ai/ha): 70 | Plant response rating, Galium [8, 15]: 90 | Galium plant response rating ([8]; 500 g ai/ha): 90 | Ryegrass, Italian plant response rating ([9]; 125 g ai/ha): 40 | Plant response rating, Ryegrass, Italian ([9]; 500 g ai/ha): 90 | Plant response rating, Barnyardgrass [10, 15]: 50 | Barnyardgrass plant response rating ([10]; 500 g ai/ha): 90 | Plant response rating, Ragweed [11, 15]: 90 | Ragweed plant response rating ([11]; 500 g ai/ha): 90 | Kochia plant response rating (kochia (Bassia scoparia) [12]; 125 g ai/ha): 90 | Plant response rating, Kochia (kochia (Bassia scoparia) [12]; 500 g ai/ha): 100 | Plant response rating, Wheat [13, 15]: 60 | Wheat plant response rating ([13]; 500 g ai/ha): 80 | Plant response rating, Foxtail, Giant [14, 15]: 0 | Foxtail, Giant plant response rating ([14]; 500 g ai/ha): 80

Cc1cc(C)c(C2=NOC3(C2)CC(C)OC(C)C3)cc1NS(=O)(=O)C(F)(F)F (single isomer, unassigned) [Compound 171]
Plant response rating, Blackgrass ([1]; 125 g ai/ha): 40 | Blackgrass plant response rating ([1]; 500 g ai/ha): 80 | Plant response rating, Pigweed ([2]; 125 g ai/ha): 60 | Pigweed plant response rating ([2]; 500 g ai/ha): 80 | Ragweed plant response rating ([3]; 125 g ai/ha): 80 | Plant response rating, Ragweed ([3]; 500 g ai/ha): 90 | Plant response rating, Corn (corn (Zea mays); 125 g ai/ha): 80 | Corn plant response rating (corn (Zea mays); 500 g ai/ha): 80 | Barnyardgrass plant response rating ([4]; 125 g ai/ha): 90 | Plant response rating, Barnyardgrass ([4]; 500 g ai/ha): 100 | Plant response rating, Ryegrass, Italian ([5]; 125 g ai/ha): 80 | Ryegrass, Italian plant response rating ([5]; 500 g ai/ha): 80 | Foxtail, Giant plant response rating ([6]; 125 g ai/ha): 100 | Plant response rating, Foxtail, Giant ([6]; 500 g ai/ha): 100 | Plant response rating, Kochia (kochia (Bassia scoparia) [7]; 125 g ai/ha): 30 | Kochia plant response rating (kochia (Bassia scoparia) [7]; 500 g ai/ha): 70 | Plant response rating, Galium ([8]; 125 g ai/ha): 60 | Galium plant response rating ([8]; 500 g ai/ha): 90 | Ryegrass, Italian plant response rating ([9]; 125 g ai/ha): 100 | Plant response rating, Ryegrass, Italian ([9]; 500 g ai/ha): 100 | Plant response rating, Barnyardgrass ([10]; 125 g ai/ha): 90 | Barnyardgrass plant response rating ([10]; 500 g ai/ha): 90 | Plant response rating, Ragweed ([11]; 125 g ai/ha): 40 | Ragweed plant response rating ([11]; 500 g ai/ha): 90 | Kochia plant response rating (kochia (Bassia scoparia) [12]; 125 g ai/ha): 70 | Plant response rating, Kochia (kochia (Bassia scoparia) [12]; 500 g ai/ha): 90 | Plant response rating, Wheat ([13]; 125 g ai/ha): 60 | Wheat plant response rating ([13]; 500 g ai/ha): 60 | Plant response rating, Foxtail, Giant ([14]; 125 g ai/ha): 60 | Foxtail, Giant plant response rating ([14]; 500 g ai/ha): 90

Cc1cc(C)c(N(S(=O)(=O)C(F)(F)F)S(=O)(=O)C(F)(F)F)cc1N1CC2(CCCCC2)OC1=O [Compound 269]
Plant response rating, Blackgrass ([1]; 125 g ai/ha): 20 | Plant response rating, Blackgrass [1, 16]: 20 | Plant response rating, Pigweed ([2]; 125 g ai/ha): 30 | Plant response rating, Pigweed [2, 16]: 70 | Plant response rating, Ragweed [3, 17]: 80 | Ragweed plant response rating ([3]; 500 g ai/ha): 90 | Plant response rating, Corn (corn (Zea mays); 125 g ai/ha): 0 | Plant response rating, Corn (corn (Zea mays); [16]): 10 | Plant response rating, Barnyardgrass [4, 17]: 100 | Barnyardgrass plant response rating ([4]; 500 g ai/ha): 100 | Plant response rating, Ryegrass, Italian ([5]; 125 g ai/ha): 0 | Plant response rating, Ryegrass, Italian [5, 16]: 20 | Plant response rating, Foxtail, Giant [6, 17]: 100 | Foxtail, Giant plant response rating ([6]; 500 g ai/ha): 100 | Plant response rating, Kochia (kochia (Bassia scoparia) [7]; 125 g ai/ha): 30 | Plant response rating, Kochia (kochia (Bassia scoparia) [7]; [16]): 50 | Plant response rating, Galium ([8]; 125 g ai/ha): 70 | Plant response rating, Galium [8, 16]: 90 | Plant response rating, Ryegrass, Italian [9, 17]: 80 | Ryegrass, Italian plant response rating ([9]; 500 g ai/ha): 100 | Plant response rating, Barnyardgrass ([10]; 125 g ai/ha): 0 | Plant response rating, Barnyardgrass [10, 16]: 20 | Plant response rating, Ragweed ([11]; 125 g ai/ha): 40 | Plant response rating, Ragweed [11, 16]: 90 | Plant response rating, Kochia (kochia (Bassia scoparia) [12]; [17]): 70 | Kochia plant response rating (kochia (Bassia scoparia) [12]; 500 g ai/ha): 100 | Plant response rating, Wheat ([13]; 125 g ai/ha): 0 | Plant response rating, Wheat [13, 16]: 20 | Plant response rating, Foxtail, Giant ([14]; 125 g ai/ha): 0 | Plant response rating, Foxtail, Giant [14, 16]: 0
